Data from US4017611A, “Control of insects with 3-hydroxymethacrylic acid methyl ester dimethylthionophosphate” (priority 1970, dated 1977).
Like-named read-outs stand apart in the source and are kept apart here.

Legend:
Rhizopertha dominica = assay: Durability (disinfection) test on wheat, lesser grain borer; format: in vivo; conditions: Rhyzopertha dominica, 168 h, read-out: % animals dead after one week exposure
Text: (§1) Wheat was shaken up with 5% dusting agent and then mixed again repeatedly with untreated wheat at half the poison concentration. In this way, a dilution series with concentrations of 50 - 25 - 12 - 6 - 3 - 1.5 ppm was obtained.
(§2) Since the test is repeated once per month, the desired information is obtained concerning the residual effect. In the test, the important pests in storage protection were chosen, viz, the grain weevil (Sitophilus granarius) - lesser grain borer (Rhizopertha dominica) and the larvae of the Khapra beetle (Trogoderma granarium), which are very resistant to insecticides. 20 test insects were tested per concentration and the results are expressed in the following table.

Sitophilus granarius = assay: Durability (disinfection) test on wheat, grain weevil; format: in vivo; conditions: 168 h, read-out: % animals dead after one week exposure
Text: as §1, §2

Trogoderma granarium (L) = assay: Durability (disinfection) test on wheat, larvae of the Khapra beetle; format: in vivo; conditions: 168 h, read-out: % animals dead after one week exposure
Text: as §1, §2

insects = assay: Insecticidal action and effective life (general statement); format: in vivo
[1] = Acute oral toxicity (warm blooded toxicity) in rats; conditions: rat, in vivo, po
Sit. Granarius = assay: Diffusion action in wheat (gas phase between wheat grains); format: in vivo; conditions: Sitophilus granarius, 168 h, 50 ppm treated wheat layer, read-out: Mortality in % after 7 days exposure time
Text: A plexiglass box was divided by means of wire grids into ten vertical layers each 1 cm thick. Each compartment was filled with wheat grains. The first compartment contained wheat grains which had been treated with 50 ppm active agent (5% dusting agent). The remainder of the compartment contained untreated wheat. All the compartments were then supplied with grain weevils. The mortality was noted after 7 days exposure time and the results are expressed in the following table. Diffusion of active substance in gas phase between the wheat grains

[2] = Vapour pressure and diffusion (general statement)
[3] = test system: one day old houseflies (Musca domestica); assay: Ingestion test with one day old houseflies; format: in vivo; conditions: read-out: % flies killed; for mortality at 0.4 ppm: 0.4 ppm in 30% sugar water; for mortality at 0.8 ppm: 0.8 ppm in 30% sugar water; for mortality at 1.5 ppm: 1.5 ppm in 30% sugar water; for mortality at 3 ppm: 3 ppm in 30% sugar water; for mortality at 6 ppm: 6 ppm in 30% sugar water; for mortality at 12 ppm: 12 ppm in 30% sugar water; for mortality at 25 ppm: 25 ppm in 30% sugar water; for mortality at 50 ppm: 50 ppm in 30% sugar water; for mortality at 100 ppm: 100 ppm in 30% sugar water
Experimental: Dilution series were manufactured with water. As solvent for the test preparations and similarly as a nutrition agent for the flies, 30% sugar water was used which had been coloured with chlorantin light red (as an attractant). The dilutions were tested with one day old houseflies. The 1, 2 and 4 hour controls enabled the speed of action to be determined. By means of the 24 hour control the limit concentration (action strength) could also be determined.

[4] = compared to compounds of French Pat. No. 1530955, PHOSDRIN or DDVP

Structure (SMILES): COC(=O)C(C)=COP(=S)(OC)OC [Compound I, 3-hydroxymethacrylic acid methyl ester dimethylthionophosphate]
- mortality at 1.5 ppm (Rhizopertha dominica; wheat fresh): 20%
- mortality at 1.5 ppm (Rhizopertha dominica; wheat stored 1 month): 0%
- mortality at 1.5 ppm (Rhizopertha dominica; wheat stored 2 months): 15%
- mortality at 1.5 ppm (Rhizopertha dominica; wheat stored 3 months): 0%
- mortality at 3 ppm (Rhizopertha dominica; wheat fresh): 90%
- mortality at 3 ppm (Rhizopertha dominica; wheat stored 1 month): 5%
- mortality at 3 ppm (Rhizopertha dominica; wheat stored 2 months): 10%
- mortality at 3 ppm (Rhizopertha dominica; wheat stored 3 months): 15%
- mortality at 6 ppm (Rhizopertha dominica; wheat fresh): 100%
- mortality at 6 ppm (Rhizopertha dominica; wheat stored 1 month): 60%
- mortality at 6 ppm (Rhizopertha dominica; wheat stored 2 months): 40%
- mortality at 6 ppm (Rhizopertha dominica; wheat stored 3 months): 15%
- mortality at 12 ppm (Rhizopertha dominica; wheat fresh): 100%
- mortality at 12 ppm (Rhizopertha dominica; wheat stored 1 month): 85%
- mortality at 12 ppm (Rhizopertha dominica; wheat stored 2 months): 70%
- mortality at 12 ppm (Rhizopertha dominica; wheat stored 3 months): 35%
- mortality at 25 ppm (Rhizopertha dominica; wheat fresh): 100%
- mortality at 25 ppm (Rhizopertha dominica; wheat stored 1 month): 100%
- mortality at 25 ppm (Rhizopertha dominica; wheat stored 2 months): 80%
- mortality at 25 ppm (Rhizopertha dominica; wheat stored 3 months): 75%
- mortality at 50 ppm (Rhizopertha dominica; wheat fresh): 100%
- mortality at 50 ppm (Rhizopertha dominica; wheat stored 1 month): 100%
- mortality at 50 ppm (Rhizopertha dominica; wheat stored 2 months): 100%
- mortality at 50 ppm (Rhizopertha dominica; wheat stored 3 months): 100%
- mortality at 1.5 ppm (Sitophilus granarius; wheat fresh): 100%
- mortality at 1.5 ppm (Sitophilus granarius; wheat stored 1 month): 90%
- mortality at 1.5 ppm (Sitophilus granarius; wheat stored 2 months): 100%
- mortality at 1.5 ppm (Sitophilus granarius; wheat stored 3 months): 70%
- mortality at 3 ppm (Sitophilus granarius; wheat fresh): 100%
- mortality at 3 ppm (Sitophilus granarius; wheat stored 1 month): 100%
- mortality at 3 ppm (Sitophilus granarius; wheat stored 2 months): 100%
- mortality at 3 ppm (Sitophilus granarius; wheat stored 3 months): 95%
- mortality at 6 ppm (Sitophilus granarius; wheat fresh): 100%
- mortality at 6 ppm (Sitophilus granarius; wheat stored 1 month): 100%
- mortality at 6 ppm (Sitophilus granarius; wheat stored 2 months): 100%
- mortality at 6 ppm (Sitophilus granarius; wheat stored 3 months): 100%
- mortality at 12 ppm (Sitophilus granarius; wheat fresh): 100%
- mortality at 12 ppm (Sitophilus granarius; wheat stored 1 month): 100%
- mortality at 12 ppm (Sitophilus granarius; wheat stored 2 months): 100%
- mortality at 12 ppm (Sitophilus granarius; wheat stored 3 months): 100%
- mortality at 25 ppm (Sitophilus granarius; wheat fresh): 100%
- mortality at 25 ppm (Sitophilus granarius; wheat stored 1 month): 100%
- mortality at 25 ppm (Sitophilus granarius; wheat stored 2 months): 100%
- mortality at 25 ppm (Sitophilus granarius; wheat stored 3 months): 100%
- mortality at 50 ppm (Sitophilus granarius; wheat fresh): 100%
- mortality at 50 ppm (Sitophilus granarius; wheat stored 1 month): 100%
- mortality at 50 ppm (Sitophilus granarius; wheat stored 2 months): 100%
- mortality at 50 ppm (Sitophilus granarius; wheat stored 3 months): 100%
- mortality at 1.5 ppm (Trogoderma granarium (L); wheat fresh): 90%
- mortality at 1.5 ppm (Trogoderma granarium (L); wheat stored 1 month): 0%
- mortality at 1.5 ppm (Trogoderma granarium (L); wheat stored 2 months): 0%
- mortality at 1.5 ppm (Trogoderma granarium (L); wheat stored 3 months): 0%
- mortality at 3 ppm (Trogoderma granarium (L); wheat fresh): 95%
- mortality at 3 ppm (Trogoderma granarium (L); wheat stored 1 month): 10%
- mortality at 3 ppm (Trogoderma granarium (L); wheat stored 2 months): 0%
- mortality at 3 ppm (Trogoderma granarium (L); wheat stored 3 months): 0%
- mortality at 6 ppm (Trogoderma granarium (L); wheat fresh): 100%
- mortality at 6 ppm (Trogoderma granarium (L); wheat stored 1 month): 85%
- mortality at 6 ppm (Trogoderma granarium (L); wheat stored 2 months): 30%
- mortality at 6 ppm (Trogoderma granarium (L); wheat stored 3 months): 10%
- mortality at 12 ppm (Trogoderma granarium (L); wheat fresh): 100%
- mortality at 12 ppm (Trogoderma granarium (L); wheat stored 1 month): 95%
- mortality at 12 ppm (Trogoderma granarium (L); wheat stored 2 months): 85%
- mortality at 12 ppm (Trogoderma granarium (L); wheat stored 3 months): 55%
- mortality at 25 ppm (Trogoderma granarium (L); wheat fresh): 100%
- mortality at 25 ppm (Trogoderma granarium (L); wheat stored 1 month): 100%
- mortality at 25 ppm (Trogoderma granarium (L); wheat stored 2 months): 100%
- mortality at 25 ppm (Trogoderma granarium (L); wheat stored 3 months): 100%
- mortality at 50 ppm (Trogoderma granarium (L); wheat fresh): 100%
- mortality at 50 ppm (Trogoderma granarium (L); wheat stored 1 month): 100%
- mortality at 50 ppm (Trogoderma granarium (L); wheat stored 2 months): 100%
- mortality at 50 ppm (Trogoderma granarium (L); wheat stored 3 months): 100%
- insecticidal action (insects; [4]): stronger insecticidal action
- effective life (insects; in vivo): more than 4 months
- LD50 [1]: 500 mg/kg
- mortality at 50 ppm (Sit. Granarius; distance 1 cm): 100%
- mortality at 50 ppm (Sit. Granarius; distance 2 cm): 100%
- mortality at 50 ppm (Sit. Granarius; distance 3 cm): 100%
- mortality at 50 ppm (Sit. Granarius; distance 4 cm): 100%
- mortality at 50 ppm (Sit. Granarius; distance 5 cm): 90%
- mortality at 50 ppm (Sit. Granarius; distance 6 cm): 15%
- diffusion into the gaps between stored foodstuffs [2]: diffuses easily
- vapour pressure [2, 4]: increased vapour pressure
- mortality at 0.4 ppm ([3]; 1 hour): 0%
- mortality at 0.4 ppm ([3]; 2 hours): 0%
- mortality at 0.4 ppm ([3]; 4 hours): 0%
- mortality at 0.4 ppm ([3]; 24 hours): 0%
- mortality at 0.8 ppm ([3]; 1 hour): 0%
- mortality at 0.8 ppm ([3]; 2 hours): 0%
- mortality at 0.8 ppm ([3]; 4 hours): 0%
- mortality at 0.8 ppm ([3]; 24 hours): 0%
- mortality at 1.5 ppm ([3]; 1 hour): 0%
- mortality at 1.5 ppm ([3]; 2 hours): 0%
- mortality at 1.5 ppm ([3]; 4 hours): 0%
- mortality at 1.5 ppm ([3]; 24 hours): 10%
- mortality at 3 ppm ([3]; 1 hour): 10%
- mortality at 3 ppm ([3]; 2 hours): 20%
- mortality at 3 ppm ([3]; 4 hours): 50%
- mortality at 3 ppm ([3]; 24 hours): 90%
- mortality at 6 ppm ([3]; 1 hour): 30%
- mortality at 6 ppm ([3]; 2 hours): 40%
- mortality at 6 ppm ([3]; 4 hours): 100%
- mortality at 6 ppm ([3]; 24 hours): 100%
- mortality at 12 ppm ([3]; 1 hour): 40%
- mortality at 12 ppm ([3]; 2 hours): 70%
- mortality at 12 ppm ([3]; 4 hours): 100%
- mortality at 12 ppm ([3]; 24 hours): 100%
- mortality at 25 ppm ([3]; 1 hour): 40%
- mortality at 25 ppm ([3]; 2 hours): 70%
- mortality at 25 ppm ([3]; 4 hours): 100%
- mortality at 25 ppm ([3]; 24 hours): 100%
- mortality at 50 ppm ([3]; 1 hour): 60%
- mortality at 50 ppm ([3]; 2 hours): 90%
- mortality at 50 ppm ([3]; 4 hours): 100%
- mortality at 50 ppm ([3]; 24 hours): 100%
- mortality at 100 ppm ([3]; 1 hour): 100%
- mortality at 100 ppm ([3]; 2 hours): 100%
- mortality at 100 ppm ([3]; 4 hours): 100%
- mortality at 100 ppm ([3]; 24 hours): 100%
